Values quoted from earlier work in patent US20210024636A1, “COMPOSITIONS AND METHODS FOR TREATING SEXUAL DYSFUNCTION” (ChemistryRX, priority 2019, published 2021).

Assays:
[1] = system: T-cell adhesion to ICAM-1; details: human T-cell line, in vitro
[2] = system: human peripheral blood mononuclear cells; details: in vitro

CS(=O)(=O)c1cccc(C[C@H](NC(=O)c2c(Cl)cc3c(c2Cl)CCN(C(=O)c2ccc4ccoc4c2)C3)C(=O)O)c1 [lifitegrast]
inhibition of T-cell adhesion to ICAM-1 [1]: may inhibit T-cell adhesion to ICAM-1 | inhibition of secretion of inflammatory cytokines [2]: may inhibit secretion of inflammatory cytokines
